Laboratory results from the NIST ThermoML archive (doi:10.1016/j.tca.2016.06.022).
± gives the expanded uncertainty stated by the source.

Test: xn = mol fraction of the nth substance listed
Details: 101 kPa, Liquid, Vibrating tube method

NCCN [ethane-1,2-diamine] + O
mass density [kg/m3]
Details	288.15 K	298.15 K	308.15 K	323.15 K	333.15 K
x1 = 0.002	–	996.85 ± 0.5	993.82 ± 0.5	987.81 ± 0.5	982.96 ± 0.5
x1 = 0.0033	–	996.68 ± 0.5	993.64 ± 0.5	987.61 ± 0.5	982.75 ± 0.5
x1 = 0.0047	–	996.5 ± 0.5	993.43 ± 0.5	987.39 ± 0.5	982.53 ± 0.5
x1 = 0.0072	–	996.2 ± 0.5	993.09 ± 0.5	987 ± 0.5	982.12 ± 0.5
x1 = 0.009	–	995.97 ± 0.5	992.86 ± 0.5	986.75 ± 0.5	981.85 ± 0.5
x1 = 0.0123	–	995.55 ± 0.5	992.39 ± 0.5	986.24 ± 0.5	981.3 ± 0.5
x1 = 0.0222	–	994.61 ± 0.5	991.25 ± 0.5	984.89 ± 0.5	979.82 ± 0.5
x1 = 0.0436	–	993.31 ± 0.5	989.53 ± 0.5	982.66 ± 0.5	977.37 ± 0.5
x1 = 0.0609	–	992.96 ± 0.5	988.77 ± 0.5	981.44 ± 0.5	975.89 ± 0.5
x1 = 0.0827	–	993.06 ± 0.5	988.38 ± 0.5	980.39 ± 0.5	974.47 ± 0.5
x1 = 0.106	–	993.56 ± 0.5	988.34 ± 0.5	979.64 ± 0.5	973.29 ± 0.5
x1 = 0.1481	–	994.9 ± 0.5	988.68 ± 0.5	978.7 ± 0.5	971.62 ± 0.5
x1 = 0.2063	–	995.33 ± 0.5	987.95 ± 0.5	976.41 ± 0.5	968.4 ± 0.51
x1 = 0.2513	–	993.49 ± 0.5	985.55 ± 0.5	973.14 ± 0.51	964.58 ± 0.51
x1 = 0.3148	–	985.82 ± 0.5	978.7 ± 0.51	964.84 ± 0.51	956.48 ± 0.51
x1 = 0.3258	–	985.17 ± 0.5	–	–	–
x1 = 0.341	–	984.26 ± 0.51	975.15 ± 0.51	961.96 ± 0.51	952.88 ± 0.51
x1 = 0.4038	–	974.96 ± 0.51	965.9 ± 0.51	952.12 ± 0.51	942.8 ± 0.51
x1 = 0.4489	–	967.22 ± 0.51	958.22 ± 0.51	944.49 ± 0.51	935.14 ± 0.51
x1 = 0.4928	–	959.94 ± 0.51	950.76 ± 0.51	936.96 ± 0.51	927.53 ± 0.51
x1 = 0.5468	–	950.96 ± 0.51	942.44 ± 0.51	928.02 ± 0.51	918.58 ± 0.51
x1 = 0.5907	–	943.88 ± 0.51	934.72 ± 0.51	920.79 ± 0.51	911.42 ± 0.51
x1 = 0.6361	945.77 ± 0.51	936.87 ± 0.51	927.73 ± 0.51	913.79 ± 0.51	904.37 ± 0.51
x1 = 0.6843	938.88 ± 0.51	929.8 ± 0.51	920.72 ± 0.51	906.8 ± 0.51	897.38 ± 0.51
x1 = 0.7386	931.34 ± 0.51	922.53 ± 0.51	913.33 ± 0.51	899.31 ± 0.51	889.84 ± 0.51
x1 = 0.7954	924.08 ± 0.51	914.93 ± 0.51	905.7 ± 0.51	891.79 ± 0.51	882.31 ± 0.51
x1 = 0.81	922.08 ± 0.51	912.91 ± 0.51	903.69 ± 0.51	889.66 ± 0.51	880.16 ± 0.51
x1 = 0.8505	917.35 ± 0.51	908.14 ± 0.51	898.88 ± 0.51	884.84 ± 0.51	875.33 ± 0.51
x1 = 0.898	912.03 ± 0.51	902.85 ± 0.51	893.62 ± 0.51	879.53 ± 0.51	870.05 ± 0.51
x1 = 0.9282	908.76 ± 0.51	899.58 ± 0.51	890.26 ± 0.51	876.1 ± 0.51	866.59 ± 0.51
x1 = 0.9584	905.56 ± 0.51	896.29 ± 0.51	886.94 ± 0.51	872.76 ± 0.51	863.2 ± 0.52
x1 = 0.9678	904.59 ± 0.51	895.3 ± 0.51	885.94 ± 0.51	871.75 ± 0.51	862.17 ± 0.52
x1 = 0.9793	903.4 ± 0.51	894.08 ± 0.51	884.7 ± 0.51	870.49 ± 0.52	860.9 ± 0.52
x1 = 1	901.26 ± 0.51	891.9 ± 0.51	882.49 ± 0.51	868.23 ± 0.51	858.6 ± 0.52
